Series [1] in a line: Anti-cancer activity (test not described).
The subject of series [2] is human MX-1 mammary tumor. Kind of series: In vivo antitumor activity against s.c.-implanted human MX-1 mammary tumor xenograft. To be noted: sc MX-1. An excerpt:
(§1) The antitumor activity data of the acyl derivatives of DM-PEN vs MX-1 human mammary tumor xenograft implanted s.c. or i.c. with intraperitoneal (i.p.) or oral drug treatment are shown in Table 1 below.

The subject of series [3] is ZR-75-1 mammary. The series is described as follows: In vivo antitumor activity against s.c.-implanted human tumor xenograft ZR-75-1. The conditions noted are these: sc ZR-75-1. For orientation: A xenograft is tissue or cells of one species grown in another, often human tumour cells in immunodeficient mice.
For series [4], the system named is P388/0.
Series [5] has as its system U251 CNS. Kind of series: In vivo antitumor activity against s.c.-implanted human tumor xenograft U251. To be noted: sc U251; IP 90 mg/kg/dose, Days 19-23.
Series [6] has as its system P388/CPA. The series is described as follows: Antitumor activity against IP-implanted P388/CPA leukemia in mice. Format: in vivo, murine.
Series [7] deals with P388/L-PAM. Kind of series: Antitumor activity against IP-implanted P388/L-PAM leukemia in mice.
The subject of series [8] is P388/BCNU. The series is described as follows: Antitumor activity against IP-implanted P388/BCNU leukemia in mice.
Series [9] relates to human MX-1 mammary tumor. Kind of series: In vivo antitumor activity against i.c.-implanted human MX-1 mammary tumor xenograft. More on the design: species or system mouse.
From the text: as §1
Table 2Comparative Activity of PEN, DM-PEN and DM-ACYL-PEN Against […] Human MX-1 Mammary Tumor at Optimal Doses (LD10 or Less) and Schedule (QD1-5) Administered I.P.

A short description of series [10]: Cytotoxicity in vitro. The conditions noted are these: without metabolism.
The mark [11] stands for this setting: P388/0, IP 60.0 MG/KG/DOSE, Q1D X 5 (1).
The mark [12] stands for this setting: P388/0, IP 90.0 MG/KG/DOSE, Q1D X 5 (1).
[13] abbreviates: P388/0, IP 135.0 MG/KG/DOSE, Q1D X 5 (1).
The mark [14] stands for this setting: IP 60.0 MG/KG/DOSE, Q1D X 5 (1).
[15] abbreviates: IP 90.0 MG/KG/DOSE, Q1D X 5 (1).
Setting [16] is: IP 135.0 MG/KG/DOSE, Q1D X 5 (1).
The mark [17] stands for this setting: highest nontoxic doses evaluated, difference to DM-PEN.
[18] abbreviates: highest nontoxic doses evaluated, difference to PEN.
The mark [19] stands for this setting: P388/L-PAM, IP 60.0 MG/KG/DOSE, Q1D X 5 (1).
[20] abbreviates: P388/L-PAM, IP 90.0 MG/KG/DOSE, Q1D X 5 (1).
Where [21] appears, read: P388/L-PAM, IP 135.0 MG/KG/DOSE, Q1D X 5 (1).

Where two headings read alike, the source gives them in different places.

For the compound `CCOc1c(Cl)c(OC)nc(C(Cl)(Cl)Cl)c1Cl` [3,5-dichloro-4-ethoxy-6-methoxy-2-(trichloromethyl)pyridine], the “anti-cancer activity (in words)” value in series [1] was “show active anti-cancer activity”.
On to `COc1nc(C(Cl)(Cl)Cl)c(Cl)c(OC(=O)c2ccncc2)c1Cl` [DM-IN-PEN], for which the “Lethality at the stated dosage (LD level)” value (“Lethality” for short) in series [2] (IP 90 mg/kg/dose, Days 12-16) was 90 (LD20).
Turning to `COc1nc(C(Cl)(Cl)Cl)c(Cl)c(OC(C)=O)c1Cl` [DM-A-PEN], the “Lethality” value in series [2] (IP 60 mg/kg/dose, Days 15-19) is 60 (LD20); in series [4] (setting [13]) it was “LD33”; in series [7] (setting [21]) it was “LD17”; in [8] (setting [16]) it was “LD17”. Moreover, the T-C in series [3] (IP 60 mg/kg/dose, Days 10-14) came out at 10.6 days; in series [3] (IP 90 mg/kg/dose, Days 8-12), 14.1 days; in series [5], 15.7 days. Also, the “50-DAY SURV./ TOTAL” value in [4] (setting [11]), in series [4] (setting [12]), in [4] (setting [13]), in series [6] (setting [14]), in series [6] (setting [15]) and in series [6] (setting [16]) was 0 / 6 in each case. Besides, the “50-DAY SURV./ TOTAL” value is on record as 1 / 6 in series [8] (setting [14]), 0 / 6 in [8] (setting [15]) and 0 / 6 in series [8] (setting [16]). Besides, the “MEDIAN DAY OF DEATH” value is 21.5 in series [4] (setting [12]), 28.5 in [4] (setting [13]) and 20.5 in series [6] (setting [15]). The “more active than PEN, log cell kill” value worked out at 0.4 log cell kill in [4] (P388/0, highest nontoxic doses evaluated, difference to PEN); 7.4 log cell kill in series [6] (setting [18]); 3.5 log cell kill in series [8] (setting [18]). Besides, the “more active than DM-PEN, log cell kill” value is given as 1.9 log cell kill in series [4] (P388/O, highest nontoxic doses evaluated, difference to DM-PEN); 4.6 log cell kill in [6] (setting [17]); 1.5 log cell kill in series [8] (setting [17]). Besides, the entries for the “% ILS” value in series [6] (setting [15]), in series [6] (setting [16]) and in [8] (setting [16]) were “+66%”, “+127%” and “+133%”, respectively. Moreover, the “50-DAY SDRV./ TOTAL” value in [7] (setting [19]), in [7] (setting [20]) and in series [7] (setting [21]) was 0 / 6 in each case. The “more active than PEN or DM-PEN, log cell kill” value in [7] (P388/L-PAM, difference to PEN or DM-PEN) is given as 0.2-0.3 log cell kill.
For `COc1nc(C(Cl)(Cl)Cl)c(Cl)c(OC(=O)CI)c1Cl` [DM-IA-PEN], the “Lethality” value in [2] (IP 60 mg/kg/dose, Days 12-16) is reported as 60 (LD40).
Consider `N[C@@H](Cc1ccc(N(CCCl)CCCl)cc1)C(=O)O` [L-PAM, melphalan], for which, in [4] (mouse, in vivo, ip, 15 mg/kg), the “50-DAY SURV./ TOTAL” value is listed as 6 / 6. Moreover, in series [4] (mouse, in vivo, ip, 20 mg/kg), the “50-DAY SURV./ TOTAL” value was 6 / 6 and the “APPROX. NET LOG10 CHANGE IN TUMOR BURDEN AT END OF Rx” value is “ca -6.6”. In series [7] (mouse, in vivo, ip, 15 mg/kg), the “50-DAY SDRV./ TOTAL” value was 0 / 6, the “APPROX. NET LOG10 CHANGE IN TUMOR BURDEN AT END OF Rx” value is given as -1.6 and the “MEDIAN DAY OF DEATH” value came out at 16.0. Besides, in series [7] (mouse, in vivo, ip, 20 mg/kg), the “50-DAY SDRV./ TOTAL” value was 0/6, the “APPROX. NET LOG10 CHANGE IN TUMOR BURDEN AT END OF Rx” value is -1.6 and the “MEDIAN DAY OF DEATH” value is listed as 16.0.
For the compound `COc1nc(C(Cl)(Cl)Cl)c(Cl)c(O)c1Cl` [DM-PEN, 3,5-dichloro-2-methoxy-4-hydroxy-6-(trichloromethyl)pyridine], in [9] (I.C.-implanted MX-1, optimal doses (LD10 or less), schedule QD1-5, I.P., based on dying mice only), the “Median % ILS” value came out at 60%. Further, the “50-DAY SURV./ TOTAL” value in series [4] (setting [11]), in series [4] (setting [12]), in [4] (setting [13]), in series [6] (setting [14]), in series [6] (setting [15]) and in series [6] (setting [16]) was 0 / 6 each time. The “50-DAY SURV./ TOTAL” value in [8] (setting [14]), in series [8] (setting [15]) and in series [8] (setting [16]) was 0 / 6 in each case. Further, the “MEDIAN DAY OF DEATH” value in [4] (setting [11]) amounted to 18.0; in [4] (setting [12]), 18.0; in series [4] (setting [13]), 8.6; in series [7] (setting [19]), 13.6. Further, the “cytotoxic agents in vitro (in words)” value in [10] was “inactive”. For the same compound, the “50-DAY SDRV./ TOTAL” value is on record as 0 / 8 in series [7] (setting [19]), 0 / 6 in [7] (setting [20]) and 0 / 6 in series [7] (setting [21]). Besides, the “APPROX. NET LOG10 CHANGE IN TUMOR BURDEN AT END OF Rx” value in series [7] (setting [19]) was “+1.5”; in [7] (setting [20]), “+1.5”; in series [7] (setting [21]), “+1.5”; in series [8] (setting [14]) it was “+0.6”. Also, the “Lethality” value in [7] (setting [21]) was 1.033; in series [8] (setting [16]) it was “LD17”. In addition, in [8] (setting [15]), the “% ILS” value is listed as “+65%”.
As to `COc1nc(C(Cl)(Cl)Cl)c(Cl)c(OC(=O)c2ccccc2)c1Cl` [DM-B-PEN], the Tumor-Free-Surv/Total entry in series [9] (ic MX-1, IP 135 mg/kg/dose, Days 1-5) is given as “. 0/5”.
For `O=P1(N(CCCl)CCCl)NCCCO1` (centres unmarked) [CPA, cyclophosphamide], the “50-DAY SURV./ TOTAL” value is given as 1 / 6 in series [4] (P388/0, IP 175.0 MG/KG/DOSE, Q1D X 1 (1)); 6 / 6 in series [4] (P388/0, IP 265.0 MG/KG/DOSE, Q1D X 1 (1)); 0 / 6 in series [6] (IP 175.0 MG/KG/DOSE, Q1D X 1 (1)); 0 / 6 in series [6] (IP 265.0 MG/KG/DOSE, Q1D X 1 (1)).

The record behind these values is EP1143970B1, “PYRIDINE COMPOUNDS, USE AND PREPARATION THEREOF” (priority 1999, dated 2000).
